“And” between values parts separate entries of the source, which are not always exact repeats. Equal values may be shown once. “Also recorded” adds a separate entry of the source. Read-outs that look alike come from different tables or passages of the source.
Assays:
Rat Paw Edema = assay: carrageenan-induced hind paw edema method (anti-inflammatory activity); type: in vivo, Wistar albino rats; details: for inhibition in vivo at 10 mg/kg: Rattus norvegicus, po; for inhibition in vivo at 10 mg/kg / % Age Inhibition of Rat Paw Edema, 4 H / anti-inflammatory activity (in words): oral dose 10 mg/kg; for inhibition in vivo at 10 mg/kg / % Age Inhibition of Rat Paw Edema, 4 H: mean ± SEM; for Potency (anti-inflammatory): relative to indomethacin = 1.00; for anti-inflammatory activity (in words): compared with standard indomethacin
Protocol: The anti-inflammatory activity of the synthesized compounds (4a–n) was evaluated by the carrageenan-induced paw edema method. An oral dose of 10 mg/kg was used for compounds and compared with the standard. Anti-inflammatory activity was accessed through percentage inhibition after 2 and 4 h (Table 1).
Compounds produced were assessed for their anti-inflammatory activity using the carrageenan-induced hind paw edema method. The anti-inflammatory activity was carried out using Wistar albino rats of either sex (150–220 g) using a Digital Plethysmometer (Model No. 7140, UGO BASILE). The edema was induced by using 1% carrageenan solution. Indomethacin was used as a standard drug. The anti-inflammatory activity of the standard drug and tested compounds was determined at a dose of 10 mg/kg body weight. The animals were divided into groups containing six animals each and the initial paw volume of each rat was noted by the NaCl displacement method. One group was kept as control, one as standard, and the rest of the groups of compounds were to be tested. To the control group, 1% CMC solution was administered p.o. To the standard group, the standard drug was administered orally. To the test group, tested compounds were administered orally. After 60 min of the 1% CMC solution/standard drug/test compound administration, 0.1 ml of 1% (w/v) carrageenan was injected in the plantar region of the hind limb (right) of all the rats in each group including the control group. The paw volume was again measured after the time interval of 2 and 4 h. Using the following formula, inflammation was calculated as percentage inhibition for the test and reference compounds
(Final foot volume of control—final foot volume of std./test) × 100 / final foot volume of control)

[1] = tested on: acetic acid-induced writhing; assay: acetic acid-induced writhing method (analgesic activity); type: in vivo, Swiss albino mice; details: for inhibition in vivo at 10 mg/kg: Mus musculus, read-out: % Analgesic Activity; for Potency (analgesic): relative to indomethacin = 1.00; for Mean with ± SEM: writhes counted for 15 min; for analgesic activity (in words): compared with standard indomethacin
Protocol: All the tested compounds and standard drugs are evaluated at 10 mg/kg oral dose.
The analgesic activity of the tested compounds was carried out by acetic acid-induced writhing method as given in the literature using Swiss albino mice of either sex (25–35 g). The writh were induced in the albino mice using an intraperitoneal injection of 1% acetic acid solution. The standard drug indomethacin and test compounds were evaluated at a concentration of 10 mg/kg of the body weight. The animals were divided into groups and each group consisted of six animals. One group was kept as control, one as standard, and other as test groups. To the control group, 0.1% CMC solution was administered p.o; to the standard group, the standard drug was administered orally, and to the test group, test compounds were administered orally. After 60 min of the 0.1% CMC solution/standard drug/tested compound administration, 0.1 ml of 1% (v/v) acetic acid solution in distilled water was injected intraperitoneally in all the mice in each group including the control group. The writhing (a contraction of the abdomen, turning of trunk, and extension of hind limbs) was counted after 5 min of acetic acid administration and were counted for a period of 15 min. The percentage of analgesic activity was calculated using the following formula.
(Mean wriths of control—mean wriths of std./test) / mean wriths of control) × 100

gastric mucosal damage = assay: acute ulcerogenic activity (severity index of gastric mucosal damage); type: in vivo, Wistar rats; details: for Severity Index: test compounds 30 mg/kg oral, indomethacin 10 mg/kg or 20 mg/kg, 17 h after dose, mean ± SEM
Protocol: Four compounds, namely, 4c (Ar = 4-chlorophenyl), 4f (Ar = 2-chlorophenyl), 4i (Ar = 4-fluoro-3-chlorophenyl), and 4n (Ar = 2-methylphenyl) were selected for their ulcerogenic activity. This selection was based on their anti-inflammatory and analgesic activity. Compounds were evaluated at an oral dose of 30 mg/kg relative to 10 mg/kg indomethacin.
Acute ulcerogenic activity evaluation of the synthesized compounds was carried out according to the method described using Wistar rats of either sex (180–220 g). The animals were distributed into control, group, and test group. Each group consisted of six rats. All the rats fasted for 24 h with free access to water. To the control group, 1% CMC solution was administered p.o; to the standard group, indomethacin at a concentration of 20 mg/kg was administered orally; and to the test groups, tested compounds were administered orally at a concentration of 30 mg/kg. After the dose administration animals were kept for 17 h. After this, the animals were sacrificed for the appraisal of ulcerogenic assessment. The stomach was taken out from the animal body and washed with flushing water, then with a cotton swab wetted with saline (0.9%) and pinned on wax-coated try. The glandular portion of the stomach was cleaned again with saline to closely identify the presence of a type of ulcers or hemorrhage mark using a magnifying glass. The mucosal injury of the stomach was evaluated as per the following system: 0.5 = redness; 1 = spot ulcer; 1.5 = hemorrhage streak; 2 = ulcers < 3; 3 = ulcers > 3 < 5. The value obtained as a result of the mean score of the individual treated group—mean score of control is referred to as the severity index of the gastric mucosal damage.

gastric tissue = assay: lipid peroxidation (MDA content of gastric tissue); type: in vivo; details: for MDA content (lipid peroxidation): as repeated in Table 4, the values are: MDA content (lipid peroxidation); for Nanomoles of MDA Content ± SEM/ 100 mg Tissue: gastric tissue
Protocol: Gastrointestinal (GI) ulceration, bleeding, and renal problems are common complications of NSAID’S consumption, which is directly related to lipid peroxidation. […] It was measured as the nmol of MDA/100 mg of gastric tissue. We have found the Lipid peroxidation value was maximum 6.71 ± 0.18 for indomethacin, whereas 3.89 ± 0.17, 4.08 ± 0.22, 4.26 ± 0.12, and 4.81 ± 0.13 for compounds 4i, 4c, 4f, and 4n, respectively.
The method adopted for lipid peroxidation is the same as Ohkawaet al. and the recent work of our researchers.

[2] = 2 h, 2 h, read-out: % Age Inhibition of Rat Paw Edema, 2 H
[3] = 4 h, 4 h, read-out: % Age Inhibition of Rat Paw Edema, 4 H

| Compound | MDA content (lipid peroxidation) (gastric tissue) | melting point | inhibition in vivo at 10 mg/kg (Rat Paw Edema; [2]) | inhibition in vivo at 10 mg/kg (Rat Paw Edema; [3]) | Potency (anti-inflammatory) (Rat Paw Edema; 10 mg/kg) | inhibition in vivo at 10 mg/kg ([1]; oral dose 10 mg/kg, mean ± SEM) | Potency (analgesic) ([1]; 10 mg/kg) | Mean with ± SEM ([1]; oral dose 10 mg/kg) | Severity Index (gastric mucosal damage) | Nanomoles of MDA Content ± SEM/ 100 mg Tissue (gastric tissue) | % Age Inhibition of Rat Paw Edema, 4 H (Rat Paw Edema; 4 h, 10 mg/kg) | anti-inflammatory activity (in words) (Rat Paw Edema; 10 mg/kg) | analgesic activity (in words) ([1]; oral dose 10 mg/kg) | anti-inflammatory activity (in words) (Rat Paw Edema) | analgesic activity (in words) ([1]; oral dose 10 mg/kg, 10 mg/kg) | severity index as share of the severity shown by the standard (gastric mucosal damage; relative to indomethacin) | % Analgesic Activity ([1]; oral dose 10 mg/kg, mean ± SEM, 10 mg/kg) | Nanomoles of MDA Content ± SEM/ 100 mg Tissue (gastric tissue; listed as indomethacin) |
| --- | --- | --- | --- | --- | --- | --- | --- | --- | --- | --- | --- | --- | --- | --- | --- | --- | --- | --- |
| O=C1C(=NNc2nc(-c3cc4ccccc4oc3=O)cs2)c2ccccc2N1CNc1ccc(F)c(Cl)c1 [Compound 4i, 1-[(3-Chloro-4-fluoro-phenylamino)-methyl]-3-{[4-(2-oxo-2H-chromen-3-yl)-thiazol-2-yl]-hydrazono}-1,3-dihydro-indol-2-one] | 3.89 ± 0.17 nmol MDA/100 mg tissue | 246 to 248 °C | 31.27 ± 0.188% | 63.95 ± 0.218% | 0.77 | 66.3 ± 1.01% | 0.90 | 10.93 ± 0.3128 | 0.500 ± 0.129 | 3.89 ± 0.17 nmol of MDA/100 mg of gastric tissue | – | – | – | moderate anti-inflammatory activity | very good analgesic activity; also recorded: good analgesic activity | – | – | – |
| COc1ccc2c(c1)c(CC(=O)O)c(C)n2C(=O)c1ccc(Cl)cc1 [Indomethacin, reference compound] | – | – | 66.34 ± 0.051% | 82% | 1.00 | 73.6% | 1.00 | 8.55 ± 0.394 | 4.500 ± 0.316 | 6.71 ± 0.18 nmol of MDA/100 mg of gastric tissue | 82.05 ± 0.08% | – | – | – | – | – | 73.61 ± 0.315 % | 6.71 ± 0.18 nmol of MDA/100 mg of gastric tissue |

Further lines, with some results ahead:

| MDA content (lipid peroxidation) (gastric tissue) | melting point | Compound | inhibition in vivo at 10 mg/kg (Rat Paw Edema; [2]) | inhibition in vivo at 10 mg/kg (Rat Paw Edema; [3]) | Potency (anti-inflammatory) (Rat Paw Edema; 10 mg/kg) | inhibition in vivo at 10 mg/kg ([1]; oral dose 10 mg/kg, mean ± SEM) | Potency (analgesic) ([1]; 10 mg/kg) | Mean with ± SEM ([1]; oral dose 10 mg/kg) | Severity Index (gastric mucosal damage) | Nanomoles of MDA Content ± SEM/ 100 mg Tissue (gastric tissue) | % Age Inhibition of Rat Paw Edema, 4 H (Rat Paw Edema; 4 h, 10 mg/kg) | anti-inflammatory activity (in words) (Rat Paw Edema; 10 mg/kg) | analgesic activity (in words) ([1]; oral dose 10 mg/kg) | anti-inflammatory activity (in words) (Rat Paw Edema) | analgesic activity (in words) ([1]; oral dose 10 mg/kg, 10 mg/kg) | severity index as share of the severity shown by the standard (gastric mucosal damage; relative to indomethacin) | % Analgesic Activity ([1]; oral dose 10 mg/kg, mean ± SEM, 10 mg/kg) | Nanomoles of MDA Content ± SEM/ 100 mg Tissue (gastric tissue; listed as indomethacin) |
| --- | --- | --- | --- | --- | --- | --- | --- | --- | --- | --- | --- | --- | --- | --- | --- | --- | --- | --- |
| 4.08 ± 0.22 nmol MDA/100 mg tissue | 233 to 235 °C | O=C1C(=NNc2nc(-c3cc4ccccc4oc3=O)cs2)c2ccccc2N1CNc1ccc(Cl)cc1 [Compound 4c, 1-[(4-Chloro-phenylamino)-methyl]-3-{[4-(2-oxo-2H-chromen-3-yl)-thiazol-2-yl]-hydrazono}-1,3-dihydro-indol-2-one] | 59.29 ± 0.143% | 30.17 ± 0.294% | 0.36 | 59.9 ± 0.846% | 0.81 | 13.00 ± 0.2582 | 0.666 ± 0.105 | 4.08 ± 0.22 nmol of MDA/100 mg of gastric tissue and 4.26 ± 0.12 nmol of MDA/100 mg of gastric tissue | – | – | – | – | – | – | – | – |
| 4.26 ± 0.12 nmol MDA/100 mg tissue | 239 to 241 °C | O=C1C(=NNc2nc(-c3cc4ccccc4oc3=O)cs2)c2ccccc2N1CNc1ccccc1Cl [Compound 4f, 1-[(2-chloro-phenylamino)-methyl]-3-{[4-(2-oxo-2H-chromen-3-yl)-thiazol-2-yl]-hydrazono}-1,3-dihydro-indol-2-one] | 48.38 ± 0.219% | 72.4% | 0.88 | 69.36 ± 0.585% | 0.94 | 9.93 ± 0.386 | 0.666 ± 0.105 | 4.26 ± 0.12 nmol of MDA/100 mg of gastric tissue and 4.08 ± 0.22 nmol of MDA/100 mg of gastric tissue | 72.42 ± 0.183 % | good anti-inflammatory activity; also recorded: significant anti-inflammatory activity | very good analgesic activity | – | – | – | – | – |
| 4.81 ± 0.13 nmol MDA/100 mg tissue | 237 to 239 °C | Cc1ccccc1NCN1C(=O)C(=NNc2nc(-c3cc4ccccc4oc3=O)cs2)c2ccccc21 [Compound 4n, 3-{[4-(2-Oxo-2H-chromen-3-yl)-thiazol-2-yl]-hydrazono}-1-(o-tolylamino-methyl)-1,3-dihydro-indol-2-one] | 42.57 ± 0.213% | 69.58 ± 0.133% | 0.84 | 69.14 ± 0.689% | 0.93 | 10.00 ± 0.3651 | – | 4.81 ± 0.13 nmol of MDA/100 mg of gastric tissue | – | – | very good analgesic activity | – | – | 20% | – | – |

From PMC7179205, “An Improved Synthesis of Key Intermediate to the Formation of Selected Indolin-2-Ones Derivatives Incorporating Ultrasound and Deep Eutectic Solvent (DES) Blend of Techniques, for Some Biological Activities and Molecular Docking Studies” (Molecules, 2020)
